According to article PMC7321108, “1-Hydroxyanthraquinones Containing Aryl Substituents as Potent and Selective Anticancer Agents” (Molecules, 2020):

What was measured:
DU-145 cells = test: Cell cycle analysis by flow cytometry (Hoechst 33342), DU-145; assay type: cell-based, human; conditions: DU-145, treated at GI50 concentration, 24 h
Method: We have carried out flow cytometric study of compounds 13, 16 and the isomeric compound 25 (Table 4, Figure 4G,H). Concentrations of 16 and 25 were taken as 5.4 and 14.5 μM, respectively, as per cytotoxic studies (Table 1). After examining the data for 13 (Figure 4G, Table 4), a good number of cells are arrested in Sub-G1, G0/G1 and S phase. Biosynthetic activity is very high during Sub-G1 phase; this is probably achieved by enhancing of apoptosis. The isomeric molecule 25 arrest G0/G1 and S phases, i.e., affecting the DNA synthesis/replication mechanism. Similarly, for 25 a different pattern is observed, i.e., variations at S and G2/M phases were observed, in comparison to the control. […] Some difference in the mechanism of operation of 13 and 25 has been observed during the progression of cell cycle like: Sub-G1 phase was highly disturbed by 13 and S and G0/G1 phases were highly disturbed by 25.
For cell cycle analysis cells were seeded in 6-well plates (30,000 per plate) and incubate for adhesion for 24 h. […] Cells were washed with PBS twice, harvested, pelleted and resuspended in 0.5 mL of PBS. For staining the Hoechst 33342 Ready Flow Reagent (Invitrogen) was used according to the instruction. CytoFLEX flow cytometer (Beckman Coulter) was used for analysis. The results are presented as a percentage of cell population standing in different stages of the cell cycle.

pUC19 DNA plasmid = test: Gel retardation (electrophoretic mobility shift) assay; assay type: binding; conditions: 0.5 µg pUC19 plasmid, 0.025 µM test compound, room temperature 1 h, agarose gel 60 V 4 h
Method: The interaction of compounds 13, 15, 16, 23, 25 27, 28, 35, 40 and 44 with DNA was experimentally confirmed by study of the electrophoretic mobility. For this the gel retardation assay was performed. Doxorubicin in different concentration was used as a positive control. In order to avoid destruction of the possible complex of DNA with compounds, the electrophoresis was performed at low voltage. The results are presented at Figure 3.
To study the interaction between test compounds and DNA the electrophoretic mobility shift assay was performed. 0.5 µg of pUC19 plasmid was incubated with 0.025 µM of test compounds at room temperature for 1 h. After that the electrophoresis was performed in agarose gel (1/2%) in TBE buffer (60 V, 4 h). For visualization the gel was staining with ethidium bromide and analyzed with Bio-Rad gel documentation system.

| Structure (SMILES) | Population (% Cell Distribution) G0/G1 (DU-145 cells) [%] | Population (% Cell Distribution) G2/M (DU-145 cells) [%] | Population (% Cell Distribution) S (DU-145 cells) [%] | Population (% Cell Distribution) Sub-G1 (DU-145 cells) [%] | Population (% Cell Distribution) Super-G2 (DU-145 cells) [%] | Retardation of plasmid DNA (electrophoretic mobility) (pUC19 DNA plasmid) |
| --- | --- | --- | --- | --- | --- | --- |
| COc1cccc(-c2ccc(O)c3c2C(=O)c2ccccc2C3=O)c1OC [Compound 16, 1-(2,3-Dimethoxyphenyl)-4-hydroxyanthracene-9,10-dione] | 44.3 | 7.3 | 30.7 | 15.7 | 2.0 | cause a retardation of plasmid DNA |
| O=C1c2ccccc2C(=O)c2c(-c3ccccc3)ccc(O)c21 [Compound 13, 1-Hydroxy-4-phenylanthracene-9,10-dione] | 28.7 | 6.3 | 28.7 | 34.6 | 1.6 | cause a retardation of plasmid DNA |
